The supplement of paper PMC11616607

Tests used:
Experiment in all cases: drug sensitivity score (DSS) from 5-point dose-response viability curve (DSS (area-under-curve based score)); higher = more sensitive (stronger growth inhibition or killing); extreme values may be limits of the assay
Details in all cases: exposure time: 72 h; concentration range: 5 concentrations over 10,000-fold range
[1] = test system: COV318
Outline: (§1)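 For the drug sensitivity score, obtained per cell line and drug in Breeze software, larger values mean greater sensitivity. No response corresponds to a score of zero. Ovarian cancer and normal ovarian cells were seeded at 1,500 per well into 384-well plates already holding acoustically dispensed drugs (Echo 550, DMSO or water, five concentrations over a 10,000-fold range) and incubated 3 days at 37°C, 5% CO2. CellTiter-Glo luminescence on a PHERAstar FS gave the viability readout.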

[2] = test system: OVCAR8
Outline: as §1

[3] = test system: OVCAR4
Outline: as §1

[4] = test system: OV90
Outline: as §1

[5] = test system: JHOS2
Outline: as §1

[6] = test system: HOSE1C
Outline: as §1

[7] = test system: HOSE2C
Outline: as §1

[8] = test system: CAOV3
Outline: as §1

[9] = test system: Kuramochi
Outline: as §1

[10] = test system: COV362
Outline: as §1

[11] = test system: Ovsaho
Outline: as §1

[12] = test system: OVCAR5
Outline: as §1

Row | SMILES | drug sensitivity score [1] | drug sensitivity score [2] | drug sensitivity score [3] | drug sensitivity score [4] | drug sensitivity score [5] | drug sensitivity score [6] | drug sensitivity score [7] | drug sensitivity score [8] | drug sensitivity score [9] | drug sensitivity score [10] | drug sensitivity score [11] | drug sensitivity score [12]
1 | COc1cccc2c1C(=O)c1c(O)c3c(c(O)c1C2=O)C[C@@](O)(C(C)=O)C[C@@H]3O[C@H]1C[C@H](N)[C@H](O)[C@H](C)O1 [Daunorubicin] | 1.7 | 10.8 | 3.2 | 5.3 | 6.2 | 11.5 | 10.9 | 9.4 | 4.2 | 3.6 | 7.9 | 8.2
2 | CC[C@@](C)(Nc1ccnc(-c2c[nH]c3ncccc23)n1)C(=O)NCC(F)(F)F [Decernotinib] | 0 | 0 | 0 | 0 | 0 | 0 | 0.6 | 0 | 0 | 0 | 0 | 0
3 | Nc1ncn([C@H]2C[C@H](O)[C@@H](CO)O2)c(=O)n1 [Decitabine] | 0 | 2.8 | 2.8 | 0 | 0 | 0 | 0.5 | 2.3 | 0 | 0 | 0 | 2.4
4 | CC(=O)N(O)CCCCCNC(=O)CCC(=O)N(O)CCCCCNC(=O)CCC(=O)N(O)CCCCCN [Deferoxamine] | 2.2 | 2.7 | 3.4 | 4.5 | 0.7 | 1.8 | 0 | 2.8 | 3.7 | 0.5 | 3.8 | 2.6
5 | C[C@@H]1C[C@H]2[C@@H]3CCC4=CC(=O)C=C[C@]4(C)[C@@]3(F)[C@@H](O)C[C@]2(C)[C@@]1(O)C(=O)CO [Dexamethasone] | 0 | 0 | 0 | 0 | 0 | 0 | 0 | 0 | 0 | 0.5 | 0 | 0
6 | C[C@H]1O[C@@H](O[C@H]2[C@@H](O)C[C@H](O[C@H]3[C@@H](O)C[C@H](O[C@H]4CC[C@@]5(C)[C@H](CC[C@@H]6[C@@H]5C[C@@H](O)[C@]5(C)[C@@H](C7=CC(=O)OC7)CC[C@]65O)C4)O[C@@H]3C)O[C@@H]2C)C[C@H](O)[C@@H]1O [Digoxin] | 11.9 | 11.2 | 9.6 | 7.2 | 10.9 | 11.1 | 9.5 | 6.2 | 8.5 | 10.8 | 7.1 | 7.5
7 | CCc1cnn2c(NCc3ccc[n+]([O-])c3)cc(N3CCCC[C@H]3CCO)nc12 [Dinaciclib] | 15.9 | 20.7 | 15.7 | 21.2 | 19 | 28 | 15.4 | 17.9 | 13.1 | 13.6 | 17.9 | 17.9
8 | CC(=O)O[C@@]12CO[C@@H]1C[C@H](O)[C@@]1(C)C(=O)[C@H](O)C3=C(C)[C@@H](OC(=O)[C@H](O)[C@@H](NC(=O)OC(C)(C)C)c4ccccc4)C[C@@](O)([C@@H](OC(=O)c4ccccc4)[C@H]21)C3(C)C [Docetaxel] | 9.5 | 27.7 | 8.1 | 15.5 | 13.9 | 29.3 | 27.6 | 28.7 | 16 | 9.3 | 10.3 | 23.4
9 | Cc1ccc(-n2nc(C(C)(C)C)cc2NC(=O)Nc2ccc(OCCN3CCOCC3)c3ccccc23)cc1 [Doramapimod] | 0 | 1.8 | 2.4 | 1.5 | 0 | 5 | 2.9 | 0 | 0.6 | 0 | 2.9 | 1.1
10 | CN1CCN(c2ccc3nc(-c4c(N)c5c(F)cccc5[nH]c4=O)[nH]c3c2)CC1 [Dovitinib] | 0 | 0 | 0.6 | 0 | 0 | 0 | 0 | 0 | 0 | 0 | 0 | 0
11 | COc1cccc2c1C(=O)c1c(O)c3c(c(O)c1C2=O)C[C@@](O)(C(=O)CO)C[C@@H]3O[C@H]1C[C@H](N)[C@H](O)[C@H](C)O1 [Doxorubicin] | 3.6 | 8.8 | 3.5 | 6.7 | 5.9 | 0 | 0 | 8.6 | 6.2 | 2.3 | 7.6 | 4.6
12 | C[C@H](Nc1ncnc2nc[nH]c12)c1cc2cccc(Cl)c2c(=O)n1-c1ccccc1 [Duvelisib] | 0 | 0 | 0.7 | 0 | 0 | 0.2 | 0 | 0.1 | 2 | 0 | 1.4 | 0
13 | Cc1ccc(NS(=O)(=O)c2cccc(C#N)c2)c2[nH]cc(C#N)c12 [E7820] | 2.8 | 3.3 | 4.4 | 2.7 | 10.7 | 7.3 | 5 | 4.8 | 0.8 | 0 | 1.2 | 3.3
